From PubChem BioAssay AID651717 (Broad Institute, 2012) come the findings set out here.

Molecules are shown by their SMILES.

The assay has as its system mESC Bmi1-luciferase reporter, firefly/renilla ratio, 24 h. The assay is described as follows: Bmi1-luciferase reporter activators in mESC, dose response, esBAF inhibitor project, mouse embryonic stem cells, cherry-pick (AID 651717).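 Note: luciferase knocked into Bmi1 locus with EF-1a renilla as cell number control; rising ratio signals esBAF inhibition which derepresses Bmi1.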 For orientation: A reporter such as luciferase makes a cellular process visible.
On to `COc1ccc2nc3sc(C(=O)NCCCN4CCc5ccccc5C4)cc3cc2c1`, for which the AC40 is 11.9 µM.

On to `Cc1ccc(NC(=O)C2CCN(S(=O)(=O)c3ccc4ccccc4c3)CC2)nc1`, for which the AC40 was 6.53 µM.

In the case of `CCS(=O)(=O)N1Cc2ccccc2CC1C(=O)Nc1cccc(OC)c1` (stereo not given), the AC40 is 8.28 µM.

With `COC(=O)c1ccc2nc(-c3cccc(Cl)c3)c(Cc3ccsc3)n2c1`, the AC40 is 7.98 µM.

Take `Cc1c(C(=O)N2CCCc3ccccc32)sc2nc(-c3ccccc3)cn12`: the AC40 is 12.5 µM.

With `COc1ccc(-c2ccc3oc(-c4ccsc4)cc(=O)c3c2)cn1`, the AC40 is 1.67 µM.

For the compound `O=C(Cn1cc(C(F)(F)F)cc(Cl)c1=O)NCc1ccc(F)cc1`, the AC40 was 7.38 µM.

In the case of `Clc1ccc(OCc2nc(-c3ccncc3)no2)cc1`, the AC40 is 10.8 µM.

`C#CCn1cccc(C(=O)Nc2ccc(OC)cc2)c1=O`: the AC40 is 10.7 µM.

For `Cc1cc2nc(N3CCN(C(=O)c4cccs4)CC3)sc2cc1C`, the AC40 was 1.98 µM.

For `CCCNC(=O)Nc1ccc2c(c1)C(=O)N(C)C[C@H](OC)[C@@H](C)CN(Cc1ccc(-c3ccccn3)cc1)[C@@H](C)CO2`, the AC40 was 14.1 µM.

With `CN(C)S(=O)(=O)c1ccc2c(c1)/C(=C/c1cc3c([nH]1)CCCC3)C(=O)N2`, the AC40 is 3.25 µM.

Consider `COc1cccc(Nc2cc(C)c3ccccc3n2)c1`, for which the AC40 is 6.06 µM.

Consider `COc1ccc(C(=O)NCc2ccc(-c3nc4ccccc4s3)cc2)cc1`, for which the AC40 was 6.13 µM.

For `Cn1cnc(S(=O)(=O)N2CCCCC2c2cc(C(=O)Nc3ccc(F)c(Cl)c3)no2)c1` (stereo not given), the AC40 is 8.38 µM.

For `CC(=O)Nc1ccccc1OCc1nnc(-c2ccc(Cl)cc2)o1`, the AC40 is 8.95 µM.

Turning to `Cc1ccc(-n2nnc(-c3cccnc3)n2)cc1`, the AC40 was 0.926 µM.

Consider `CCSc1ccc(/C(N)=N/OC(=O)c2cccs2)cn1`, for which the AC40 was 8.66 µM.

Consider `COc1cccc(OCc2cc(C(=O)N(C)Cc3nc4ccccc4[nH]3)no2)c1`, for which the AC40 was 2.78 µM.

Turning to `C1=NN(c2ccccc2)C=NN1c1ccccc1`, the AC40 is 1.17 µM.

In the case of `CC(C)N1CC2(CC(c3ccccc3F)=NO2)CN1C(=O)c1ccc(C(C)(C)C)cc1` (stereo not given), the AC40 was 4.08 µM.

On to `COc1ccc(/C=N/NC(=O)c2cccs2)c2ccccc12`, for which the AC40 is 9.35 µM.

For the compound `O=C(O)c1ccc2c(c1)C(=O)N(CCc1c[nH]c3ccccc13)C2=O`, the AC40 was 5.77 µM.

With `CC1CCC(NC(=O)c2cc3ccccc3cc2O)CC1` (stereo not given), the AC40 is 0.967 µM.

`CO[C@H]1CN(C)C(=O)c2ccc(NC(=O)Nc3ccc4c(c3)OCO4)cc2OC[C@@H](C)NC[C@@H]1C`: the AC40 is 2.76 µM.

Turning to `OC(c1ccc(F)cc1)c1ncc(-c2ccc3ccccc3c2)[nH]1` (stereo not given), the AC40 is 10.9 µM.

As to `Cc1cccc(-c2noc(CCC(=O)N3CCN(c4cc(C)ccc4C)CC3)n2)c1`, the AC40 is 2.82 µM.

As for `COc1cccc(NC(=O)c2ccc3c(c2)CCN3S(C)(=O)=O)c1`, the AC40 is 7.43 µM.

For the compound `CN(C)c1ccc(-c2csc(C(O)c3ccccc3)n2)cc1` (stereo not given), the AC40 is 0.311 µM.

On to `O=C(NC1CCCC1)c1cc(-c2ccccc2O)on1`, for which the AC40 was 1.65 µM.

Take `Oc1ccc(Cl)cc1C=NN1CCCCCC1`: the AC40 is 1.37 µM.

For the compound `COc1ccccc1CCC(=O)Nc1nc2ccccc2[nH]1`, the AC40 is 3 µM.

`O=C(NC1CCCCC1)c1cc(-c2cccc(Cl)c2)on1`: the AC40 is 6.04 µM.

As to `COc1cccc2sc(NC(=O)c3ccc(Br)s3)nc12`, the AC40 is 1.85 µM.

On to `Cc1cc2oc(=O)cc(CN(C)Cc3ccccc3F)c2cc1Cl`, for which the AC40 was 4.33 µM.

For the compound `COc1ccc2c(c1OC)C(=O)OC2Nc1nc(-c2cc3cc(Br)ccc3oc2=O)cs1` (stereo not given), the AC40 was 1.25 µM.

For the compound `C=CCn1cccc(C(=O)Nc2ccc(Cl)cc2)c1=O`, the AC40 is 3.88 µM.

As to `O=C(Nc1cccc(-c2nc3ccccc3s2)c1)c1cc(-n2cnnc2)ccc1Cl`, the AC40 was 7.62 µM.

Take `Cc1cc(N2CCOCC2)nc2ccc(NC(=O)CCC(=O)N3CCN(c4ccccc4)CC3)cc12`: the AC40 is 11 µM.

For `CC(=O)c1cccc(OCc2cc(C(=O)NCCC3=CCCCC3)no2)c1`, the AC40 was 1.23 µM.

On to `Cc1cc(Cl)ccc1OCc1nnc(-c2ccccc2C)o1`, for which the AC40 was 5.44 µM.

Regarding `C=CCNc1oc(-c2ccc(OC)cc2)nc1C#N`, the AC40 is 3.54 µM.

In the case of `CCN(CC)C(=O)c1nc(-c2cccc3ccccc23)no1`, the AC40 is 13.1 µM.

Regarding `COc1cccc(-c2cc(C(=O)NC3CCCCC3)no2)c1`, the AC40 was 1.71 µM.

In the case of `CC1(C)Cc2c(c(N3CCCC3)nc3sc(C(=O)Nc4ccccc4)c(N)c23)CO1`, the AC40 is 6.24 µM.

With `COc1ccc(-n2nc(C(=O)NCC(=O)N3CCN(c4ccccc4)CC3)c3ccccc3c2=O)cc1OC`, the AC40 is 7.98 µM.

Turning to `COc1cccc(NC(=O)C(=O)NCC2CCCN2S(=O)(=O)c2cccs2)c1` (stereo not given), the AC40 is 1.25 µM.

Turning to `Clc1cccc(Cl)c1Cn1nnc(-c2cccs2)n1`, the AC40 was 3.31 µM.

Take `CN(C(=O)c1ccc2c(Cl)c3c(nc2c1)CCC3)c1ccccc1`: the AC40 is 6.63 µM.

As to `Cc1ccn2cc(C(=O)Nc3nnc(C)s3)nc2c1`, the AC40 was 1.17 µM.

In the case of `COc1ccc(CNC(=O)Nc2cccc(C)c2)cc1`, the AC40 was 5.8 µM.

Take `COc1cc(C=O)c(Br)cc1OCc1ccc(C)cc1`: the AC40 was 4.67 µM.

With `COc1ccc(N2CCN(C(=O)c3ccc(Cn4c(=S)[nH]c5ccc(N6CCOCC6)cc5c4=O)cc3)CC2)cc1`, the AC40 was 6.15 µM.

Regarding `CCCC1(C)Nc2ccccc2-c2nc3ccccc3n21` (stereo not given), the AC40 was 11.3 µM.

`COc1ccc2oc3cc(Cl)ccc3c(=O)c2c1`: the AC40 was 2.85 µM.

Turning to `Fc1cc(Cl)cc2ccc(-c3ccccc3)nc12`, the AC40 was 1.45 µM.

Take `Cc1csc(Nc2nc(N)c(C(=O)Nc3ccccc3)o2)n1`: the AC40 is 3.69 µM.

In the case of `Nc1ccc2c(c1)C(=O)c1ccc(N)cc1-2`, the AC40 is 0.55 µM.

In the case of `COc1cc(Cl)c(C)cc1NC(=O)c1cccc(OC)c1OC`, the AC40 is 6.31 µM.

As for `CC(C)Nc1nc(Cl)nc(Nc2ccccc2)n1`, the AC40 is 5.89 µM.

For the compound `Nc1cccc(N=[N+]([O-])c2cccc(N)c2)c1`, the AC40 was 2.11 µM.

Consider `Cn1c(SCc2ccccc2)nnc1-c1c[nH]c2ccccc12`, for which the AC40 is 17.9 µM.

On to `COc1ccc2[nH]c(=O)c(CNc3cccc(C)c3)cc2c1`, for which the AC40 was 12.9 µM.

As to `COc1ccc(C(=O)N=c2sc3ccccc3n2C)cc1OC`, the AC40 is 2.13 µM.

Turning to `Cc1ccc(Nc2nc3c(c(=O)[nH]2)CCCC3)cc1`, the AC40 was 8.9 µM.

With `N#Cc1ccc(-c2cn3c(n2)SCC3)cc1`, the AC40 was 4.82 µM.

Regarding `CCSc1nnc(NC(=O)c2ccc3nc[nH]c3c2)s1`, the AC40 was 12.7 µM.

For `COc1ccc(-c2cc3cc(OC)c(OC)cc3cn2)cc1`, the AC40 is 6.22 µM.

As to `Cc1ccc(-c2nnn(CC(=O)N(Cc3cccs3)C(C(=O)NC3CCCC3)c3ccncc3)n2)cc1` (stereo not given), the AC40 is 34.5 µM.

As for `CCn1c(C)nc2cc(C(=O)NN=Cc3ccccc3OC(F)F)ccc21`, the AC40 was 1.96 µM.

Consider `COc1cc(Cl)ccc1OCc1cc(C(=O)N2CCN(C)C(=O)[C@@H]2C)no1`, for which the AC40 is 1.64 µM.

With `Cn1c(COc2ccccc2)nc2ccccc21`, the AC40 was 2.59 µM.

Consider `COc1cccc(NC(=O)C(=O)NCCC2CCCCN2S(=O)(=O)c2cccs2)c1` (stereo not given), for which the AC40 was 3.86 µM.

On to `O=C(NNC(=O)c1cccc2ccccc12)c1ccc2c(c1)OCO2`, for which the AC40 was 17.8 µM.

In the case of `O=C(Nc1ccc(-c2cnco2)cc1)c1ccc(F)cc1F`, the AC40 is 4.28 µM.

`Nc1ccccc1/C=C/c1ccccc1N`: the AC40 was 2.4 µM.

Consider `CNc1nc(-c2ccc3c(c2)CCN3C(=O)c2ccc(F)cc2)cs1`, for which the AC40 is 8.13 µM.

As to `COc1ccc(-c2ccc3n2Cc2cnnn2-c2ccccc2-3)cc1`, the AC40 was 4.57 µM.

For `Cn1c(/C(C#N)=C(\O)c2ccc(Cl)s2)nc2ccccc21`, the AC40 was 3.09 µM.

Take `COCOc1ccc(-c2cc(=O)c3c(O)cc(OCOC)cc3o2)cc1`: the AC40 was 8.4 µM.

Take `O=c1ccc2ccc(OCc3ccccc3)cc2o1`: the AC40 was 3.55 µM.

`O=C1N=C(N2CCCCC2)S/C1=C\c1ccccc1F`: the AC40 was 2.67 µM.

For `COc1ccc(-c2csc(Nc3cc(C)ccn3)n2)cc1C`, the AC40 is 1.91 µM.

Regarding `Fc1ccc(Nc2nnc(-c3ccncc3)s2)cc1Cl`, the AC40 is 4.42 µM.

`CCCCCCCNC(=O)C1(CC2CC(c3ccccc3)=NO2)CCN(C(=O)OC(C)(C)C)CC1` (stereo not given): the AC40 is 15.4 µM.

On to `Cc1ccc(Cl)cc1-c1cc(C(=O)Nc2ccc(F)cc2)[nH]n1`, for which the AC40 is 4.92 µM.

Regarding `O=C(CC1CC2CCC1C2)NC1CCCCCCC1` (stereo not given), the AC40 is 9.68 µM.

For `c1ccc(Oc2cc(-c3ccccc3)ncn2)cc1`, the AC40 was 2.16 µM.

`Cc1ccc(CNC(=O)c2ccc(Cn3cc(-c4ccc(C)cc4)nc3-c3ccncc3)cc2)cc1`: the AC40 is 1.77 µM.

In the case of `Cc1ccc2sc(NC(=O)C3CC3)nc2c1C`, the AC40 was 6.72 µM.

As to `CCCCNc1ccc2c(c1)C1CC2CCN1C(=O)OCc1ccccc1` (stereo not given), the AC40 was 4.73 µM.

`Cc1ccc(O)c(NC(=O)c2ccc3c(c2)C(=O)N(CC(C)C)C3=O)c1`: the AC40 was 1.23 µM.

On to `N#Cc1ccc(Nc2nc(-c3ccccc3)cs2)cc1`, for which the AC40 was 3.97 µM.

In the case of `O=C(N/N=C/c1ccc(Cl)cc1)Nc1ccccc1`, the AC40 is 5.34 µM.

For the compound `Cc1ccnc(NCc2cc(C)ccc2O)c1`, the AC40 was 12.8 µM.

As to `COc1ccc(-c2cc([C@H]3[C@H]4C=CC[C@@H](C)[C@@H]4C(=O)N3Cc3ccccc3)ccc2F)cc1OC`, the AC40 was 17.8 µM.

In the case of `CC1CCN(c2oc(-c3cccc4ccccc34)nc2C#N)CC1`, the AC40 was 2.52 µM.

`Cc1csc(=O)n1CC(=O)OCc1cccc2ccccc12`: the AC40 was 11.4 µM.

For `O=C(NOCc1ccccc1)OCc1ccccc1`, the AC40 is 4.39 µM.

As for `Cc1ccc(NC(=O)Nc2ccc(F)cc2)cc1Cl`, the AC40 was 3.4 µM.

As for `Cc1noc(C)c1-c1csc(N2CCC(C(N)=O)CC2)n1`, the AC40 is 0.444 µM.

`O=C(c1ccc2ccccc2c1)N1CCc2ccccc21`: the AC40 is 8.41 µM.

As to `CSc1cccc(NC(=O)N2CCc3ccc(NC(=O)c4ccccn4)cc3C2)c1`, the AC40 is 4.23 µM.

As to `COC(=O)C1CCc2c(ccc3c2CCCC3)C1=O` (stereo not given), the AC40 is 4.54 µM.

Regarding `O=C(c1ccc(Cl)cc1)c1cnc(Nc2ccccc2)s1`, the AC40 was 1.46 µM.
